Measurements published in patent US20070141072A1, “Use of multifunctional transcription factor yin-yang-1 and variants thereof for treating illnesses, especially type 1 diabetes” (ERNST-MORITZ-ARNDT-UNIVERSITAT GREIFSWALD, priority 2002, published 2007).

System: calbindin-D28k
Assay: Calbindin-D28k protein expression in isolated islets of Langerhans, Western blot
Format: cell-based, rat
Conditions: increasing calcium concentration in the medium
Text: There were however significant differences in protein expression using Western blot analysis. The calcium-binding protein, calbindin-D28k, was already twice as high in BB.6S rat islets under basal conditions as that of BB/OK rats. […] Calbindin-D28k is a cytosolic calcium-binding protein, which is primarily expressed in the kidney, but also in the pancreas and brain, and which can prevent apoptotic (gene controlled) cell death (41, 42). In functional terms it is supposed that calbindin-D28k is involved in regulation of calcium reabsorption.
Calbindin-D28k protein expression using Western blot analysis under basal conditions and with increasing calcium concentration in the medium.

[Ca+2] [calcium]
protein expression of calbindin-D28k (BB.6S islets): clearly increased
protein expression of calbindin-D28k (BB/OK islets): almost uninfluenced
